In patent publication US8178506B2, “Oligomeric compounds and compositions for use in modulation of small non-coding RNAs” (Regulus Therapeutics Inc., priority 2003, dated 2012):
In the oligonucleotide strings, read from the 5' end, every base follows the letter of its sugar. An asterisk marks phosphorothioate; unmarked linkages are phosphodiester. Other units and linkages are bracketed, terminal groups are in braces. A string of capitals states the bases alone. e = 2'-O-(2-methoxyethyl) (MOE); [5mC] = 5-methylcytosine

Columns and labels:
mir-23b miRNA = test: pGL3-mir-23b sensor luciferase assay in HeLa cells; format: cell-based, human; conditions: pGL3-mir-23b sensor-expressing HeLa cells
mir-143 binding sites = test: pGL3-mir-143 sensor luciferase assay in HeLa cells; format: cell-based, human; conditions: for Relative luciferase activity / luciferase expression (% lucif. only control): HeLa cells; for Relative luciferase activity: pGL3-mir-143 sensor with pCR3-pri-mir-143 (430); for luciferase expression (% lucif. only control): pGL3-mir-143 sensor
Description: In one embodiment, an expression system based on the pGL3-Control (Promega Corp., Madison Wis.) vector containing a CMV promoter controlling expression of a luciferase reporter sequence was used in transient transfections of HeLa cells with plasmids expressing miRNA or pri-miRNA mimics. To assess the ability of miRNA mimics to bind and regulate the expression of the luciferase reporter gene, two reporter plasmids were constructed: 1) a synthetic DNA fragment comprising two sites perfectly complementary to mir-143 were inserted into the pGL3-Control luciferase reporter vector, to create the pGL3-mir-143 sensor plasmid, and 2) a DNA fragment comprising the 3′-UTR of the LIM domain only 4 (LMO4) gene (predicted to be regulated by mir-143) was inserted into pGL3-Control to create pGL3-LMO4; this fragment was PCR-amplified using a primer beginning at position 1261 of the LMO4 sequence (GenBank Accession NM_006769.2, incorporated herein as SEQ ID: 809) and the downstream primer hybridizing to the poly-A tail. In each of these plasmids, the target site was placed downstream of the luciferase coding sequence and upstream of the polyadenylation signal in the 3′-UTR of the luciferase reporter vector. The unmodified pGL3-Control luciferase reporter vector was used as a control.
HeLa cells were routinely cultured and passaged as described, and on the day before transfection with expression or reporter plasmids, the HeLa cells were seeded onto 24-well plates 50,000 cells/well. Cells were transfected according to standard published procedures with various combinations of plasmids using 2 μg Lipofectamine™ 2000 Reagent (Invitrogen) per μg of plasmid DNA, or, when transfecting oligomeric compounds, 1.25 μg of Lipofectamine™ 2000 Reagent per 100 nM oligonucleotide or double-stranded RNA. The luciferase signal in each well was normalized to the Renilla luciferase (RL) activity produced from a co-transfected plasmid, pRL-CMV, which was transfected at 0.5 μg per well. Cells were treated at various dosages (4 nM, 20 nM, and 100 nM) with the following oligomeric compound mimics: 1) “ds-mir-143,” 2) “ds-Control,” 3) “pCR3-pri-mir-143,” or 4) “pri-mir-control,” as described supra. In accordance with methods described in Example 12, supra, a luciferase assay was performed 48-hours after transfection. Briefly, cells were lysed in passive lysis buffer (PLB; Promega), and 20 ul of the lysate was then assayed for RL activity using a Dual Luciferase Assay kit (Promega) according to the manufacturer's protocol. The results below are an average of three trials and are presented as percent pGL3-Control luciferase expression normalized to pRL-CMV expression (RL).
In another embodiment, HeLa cells were transfected with 0.03 μg pGL3-mir-143 sensor plasmid and 0.01 μg pRL-CMV plasmid, and, in addition, (except those samples described below as “without mir-143 pri-miRNA,”) were also transfected with 0.01 μg of an expression plasmid designed to express a mir-143 pri-miRNA mimic comprising a larger 430-nt fragment of the mir-143 primary miRNA transcript, referred to as “pCR3-pri-mir-143 (430)” ([…]; SEQ ID NO: 871). […] To further evaluate the ability of the mir-143 pri-miRNA mimic to inhibit luciferase activity from the sensor plasmid, and to assess the ability of oligomeric compounds to interfere with the inhibition of pGL3-mir-143 sensor luciferase expression by the mir-143 pri-miRNA mimic, pGL3-mir-143 sensor-expressing HeLa cells treated with pCR3-pri-mir-143 (430) were additionally treated with varying concentrations (0-, 6.7- or 20 nM) of the following oligomeric compounds: 1) ISIS Number 327901 (SEQ ID NO: 319), a uniform 2′-MOE oligomeric compound targeting mir-143; 2) ISIS Number 342673 (SEQ ID NO: 758), a uniform 2′-MOE scrambled control; or 3) ISIS Number 327924 (SEQ ID NO: 342) targeting an unrelated miRNA (mir-129-2). […]

Substance	Fold change luciferase (mir-23b miRNA; 1.3 nM)	Fold change luciferase (mir-23b miRNA; 5 nM)	Fold change luciferase (mir-23b miRNA; 20 nM)	Relative luciferase activity (mir-143 binding sites; 6.7 nM)	Relative luciferase activity (mir-143 binding sites; 20 nM)	luciferase activity from the pGL3-mir-143 sensor plasmid (mir-143 binding sites; HeLa, 4 nM, 20 nM and 100 nM, 48 hours)	luciferase expression (% lucif. only control) (mir-143 binding sites; 4 nM, 48 hours)	luciferase expression (% lucif. only control) (mir-143 binding sites; 20 nM, 48 hours)	luciferase expression (% lucif. only control) (mir-143 binding sites; 100 nM, 48 hours)
327924 (antisense eG*e[5mC]*eA*eA*eG*e[5mC]*e[5mC]*e[5mC]*eA*eG*eA*e[5mC]*e[5mC]*eG*e[5mC]*eA*eA*eA*eA*eA*eG) [compound 327924]	1.15	0.68	0.92	0.8	1.2				
ds-mir-143: double-stranded RNA of ISIS 342199 hybridized to its perfect complement ISIS 342200 (sense UGAGAUGAAGCACUGUAGCUCA; antisense UGAGCUACAGUGCUUCAUCUCA; RNA, backbone not given here)						inhibited luciferase activity from the pGL3-mir-143 sensor plasmid in a dose-dependent manner	14.5	8.0	7.1
